Laboratory results published in ChEMBL document CHEMBL1201862, “PubChem BioAssay data set” (2004).
The source made the active and inactive calls. For most assays here, no stated cut-off is given here; in the data, actives have a measured EC50 and inactives only a lower limit.

Tests used:
[1] = molecular target: Luciferin 4-monooxygenase (Photinus pyralis, UniProt P08659); assay: Counter Screen for Luciferase-based Assay Positives. [Related pubchem assays: 620, 618, 411 ]
HT-1080 = assay: cytotoxicity in HT1080 fibrosarcoma cells, cell-based, fluorescence readout (AID 620); assay type: functional; conditions: Homo sapiens
[2] = HepG2 cell cytotoxicity, dose response, cytotoxicity control for Shn3 inhibitor project, CellTiter-Glo, cherry-picked (AID 624134); assay type: functional, cell-based
[3] = cytotoxicity in KRAS-transformed pancreatic duct cells, primary screen, cell-based, fluorescence, HTS (AID 431); assay type: functional; conditions: Homo sapiens;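 further: cell line used: HPDE-C7K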
cells [4] = assay type: functional, cell-based
[5] = Shn3 3'UTR reporter inhibitors, dose response, cell-based, Clone20 osteoblasts, firefly luciferase, cherry-picked (AID 624132); assay type: functional;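 further: firefly luciferase luminescence from reporter carrying the Shn3 3'UTR in osteoblasts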
[6] = growth suppression of PTEN-null colon cells, dose response, cell-based, HCT116 PTEN knockout (AID 1047); assay type: functional;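 further: HCT116 colon tumor cells with PTEN knocked out; cells exposed to compound for 60 hours before readout; potency for loss of cell viability measured by luminescence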
[7] = growth suppression of beta-catenin-knockout colon cells, dose response, cell-based, HCT116, human colon tumor (AID 1045); assay type: functional;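 further: HCT116 colon tumor cells with beta catenin knocked out; cells exposed to compound for 60 hours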
[8] = control 3'UTR Renilla luciferase suppression, dose response, counter-screen for Shn3 inhibitor project, cell-based, Clone20-Shn3RL, cherry-picked (AID 624133); assay type: functional
Protein RecA = molecular target: T1, Protein RecA (Mycobacterium tuberculosis, UniProt P9WHJ3); assay: Fluorescence Cell-Free Homogeneous Dose Retest to Identify Inhibitors of RecA-Intein Splicing Activity. [Related pubchem assays (depositor defined):AID2097, AID2223, AID489010, AID492950]; assay type: functional
T1 sequence (P9WHJ3 whole entry): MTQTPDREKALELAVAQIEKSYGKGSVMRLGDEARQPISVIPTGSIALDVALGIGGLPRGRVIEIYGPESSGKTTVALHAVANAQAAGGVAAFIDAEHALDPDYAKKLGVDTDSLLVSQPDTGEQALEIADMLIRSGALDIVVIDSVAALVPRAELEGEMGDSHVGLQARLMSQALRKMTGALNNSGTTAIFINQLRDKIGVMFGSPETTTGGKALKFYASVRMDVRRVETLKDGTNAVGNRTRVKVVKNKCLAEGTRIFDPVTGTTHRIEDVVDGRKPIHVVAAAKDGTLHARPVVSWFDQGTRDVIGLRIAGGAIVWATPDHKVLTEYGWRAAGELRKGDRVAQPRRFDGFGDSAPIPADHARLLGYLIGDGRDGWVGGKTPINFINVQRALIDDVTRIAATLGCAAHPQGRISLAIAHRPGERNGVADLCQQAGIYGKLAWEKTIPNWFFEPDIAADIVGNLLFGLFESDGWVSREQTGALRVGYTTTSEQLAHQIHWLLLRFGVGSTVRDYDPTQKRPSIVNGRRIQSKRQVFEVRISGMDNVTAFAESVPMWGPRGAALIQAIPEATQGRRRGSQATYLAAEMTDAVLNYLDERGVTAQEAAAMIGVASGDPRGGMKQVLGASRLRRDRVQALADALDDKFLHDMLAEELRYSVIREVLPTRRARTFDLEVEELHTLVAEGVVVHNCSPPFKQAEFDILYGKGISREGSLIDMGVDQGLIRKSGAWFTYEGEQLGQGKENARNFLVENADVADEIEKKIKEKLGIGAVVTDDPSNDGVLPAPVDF

cells [9] = assay type: functional, cell-based; remark: listed apart in the source
[10] = cytotoxicity in HPDE-C7 cells, cell-based, fluorescence, HTS (AID 430); assay type: functional; conditions: Homo sapiens
[11] = molecular target: T2, Replicative DNA helicase DnaB (Mycobacterium tuberculosis, UniProt P9WMR3); assay: DnaB intein splicing inhibitors, dose response, biochemical, cell-free fluorescence (AID 449749); assay type: functional
T2 sequence (P9WMR3 whole entry): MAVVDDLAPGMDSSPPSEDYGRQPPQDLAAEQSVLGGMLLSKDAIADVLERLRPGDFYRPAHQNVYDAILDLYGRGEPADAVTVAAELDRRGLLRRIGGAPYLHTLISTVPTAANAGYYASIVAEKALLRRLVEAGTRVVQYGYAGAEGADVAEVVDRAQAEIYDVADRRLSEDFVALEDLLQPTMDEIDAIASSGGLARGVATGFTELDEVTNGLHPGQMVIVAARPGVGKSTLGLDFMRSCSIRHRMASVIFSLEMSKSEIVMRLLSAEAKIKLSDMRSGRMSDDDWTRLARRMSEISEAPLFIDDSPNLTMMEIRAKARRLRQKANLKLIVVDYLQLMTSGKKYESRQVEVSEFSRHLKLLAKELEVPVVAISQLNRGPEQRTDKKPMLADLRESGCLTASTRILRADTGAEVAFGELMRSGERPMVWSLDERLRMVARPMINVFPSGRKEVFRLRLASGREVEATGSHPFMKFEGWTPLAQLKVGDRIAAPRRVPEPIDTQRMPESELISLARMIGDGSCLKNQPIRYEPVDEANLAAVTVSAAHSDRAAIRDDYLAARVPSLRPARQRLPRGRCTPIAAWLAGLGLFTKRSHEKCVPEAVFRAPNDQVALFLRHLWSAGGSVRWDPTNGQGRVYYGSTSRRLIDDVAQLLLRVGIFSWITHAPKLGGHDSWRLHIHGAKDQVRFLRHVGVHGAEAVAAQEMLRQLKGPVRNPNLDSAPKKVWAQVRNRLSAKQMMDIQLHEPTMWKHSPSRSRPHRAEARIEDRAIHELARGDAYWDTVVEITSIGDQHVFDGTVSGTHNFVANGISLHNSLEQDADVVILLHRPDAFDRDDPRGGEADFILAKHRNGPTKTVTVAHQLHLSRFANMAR

Sequence of Luciferin 4-monooxygenase (P08659 whole entry): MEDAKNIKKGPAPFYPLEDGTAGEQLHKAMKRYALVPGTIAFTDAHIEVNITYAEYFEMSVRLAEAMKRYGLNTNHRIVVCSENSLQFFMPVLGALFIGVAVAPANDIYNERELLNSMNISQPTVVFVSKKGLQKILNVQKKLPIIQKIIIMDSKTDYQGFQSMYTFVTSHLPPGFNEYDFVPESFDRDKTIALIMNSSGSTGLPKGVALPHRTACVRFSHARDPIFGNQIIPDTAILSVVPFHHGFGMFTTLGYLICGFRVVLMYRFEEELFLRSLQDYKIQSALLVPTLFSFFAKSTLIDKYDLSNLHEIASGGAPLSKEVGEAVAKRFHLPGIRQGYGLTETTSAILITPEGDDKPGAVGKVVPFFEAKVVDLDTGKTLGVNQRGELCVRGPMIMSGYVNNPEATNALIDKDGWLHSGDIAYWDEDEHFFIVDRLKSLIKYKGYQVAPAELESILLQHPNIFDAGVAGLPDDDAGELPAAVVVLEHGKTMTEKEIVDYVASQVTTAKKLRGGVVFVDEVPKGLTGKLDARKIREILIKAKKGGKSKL

In the case of COc1ccccc1-c1cc(C(F)(F)F)nc(S(=O)(=O)CCCC(=O)N2CCOCC2)n1, the EC50 [1] was 4.85 µM (active), the EC50 (HT-1080) was 30.8 µM (active) and the AC50 [2] was 23.2 µM (active). The EC50 [3] was 6.34 µM (active), the EC50 (cells [4]) was > 350 µM (not active) and the AC50 [5] was 3.02 µM (active). The EC50 [6] was 19.2 µM (active), the EC50 [7] was 34.4 µM (active) and the AC50 [8] was 10.2 µM (active). For the same compound, the EC50 (Protein RecA) was 4.26 µM (active), the EC50 (cells [9]) was > 350 µM (not active) and the EC50 [10] was 9.95 µM (active). For the same compound, the AC50 [11] was 8.15 µM (active).
